# Results published in patent US20240360165A1, “INHIBITORS OF CYCLIN DEPENDENT KINASE 7 (CDK7)” (Syros Pharmaceuticals, Inc., priority 2016, published 2024).
# Where two headings read alike, the source gives them in different places.
# Columns and labels:
# [1] = target: CDK7/Cyclin H/MAT1 complex (Homo sapiens, UniProt P50613); assay: CDK7 inhibition assay (Caliper/LabChip EZ Reader kinase assay); assay type: biochemical; details: Table 1; CDK7/Cyclin H/MAT1 6 nM, ATP 2 mM, 35 min at 27° C.
# In short: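 A Perkin Elmer Caliper/LabChip EZ Reader (Waltham, MA) platform served as the basis for this CDK7 kinase inhibition assay. The work was carried out by Biortus Biosciences, located in Jiangyin, Jiangsu Province, P.R. of China. Each CDK studied had its own kinase assay, and compounds were evaluated for their ability to block CDK7 activity.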
# [2] = target: T1, CDK12 (aa686-1082)/Cyclin K complex (Homo sapiens, UniProt Q9NYV4); assay: CDK12 inhibition assay (Caliper/LabChip EZ Reader kinase assay); assay type: biochemical; details: Table 1; CDK12 (aa686-1082)/Cyclin K 50 nM, ATP 2 mM, 3 hr at 27° C.
# T1 construct: CDK12 (aa686-1082)/Cyclin K complex
# HCC70 cells = assay: Inhibition of proliferation of HCC70 cells (CyQUANT Direct Cell Proliferation Assay, 72 hour); assay type: cell-based, human; details: read-out: Inhibition of Proliferation of HCC70 Cells (calculated IC50)
# Experimental: HCC70 cells are a cell line derived from human triple negative breast cancer. […] Known CDK inhibitors dinaciclib or N-((1S,3R)-3-((5-chloro-4-(1H-indol-3-yl) pyrimidin-2-yl)amino)cyclohexyl)-5-((E)-4-(dimethylamino)but-2-enamido)picolinamide and triptolide were used as positive controls. […] The cells were cultured at 37° C. in a humidified chamber in the presence of 5% CO2. Proliferation assays were conducted over a 72 hour time period. CyQUANT® Direct Cell Proliferation Assay (Life Technologies, Chicago, IL USA) was used to assess the anti-proliferative effects of the compounds following manufacturer's directions and utilizing the reagents supplied with the CyQUANT® Direct Cell kit.
# A673 cells = assay: Inhibition of proliferation of A673 cells (CyQUANT, 72 hour); assay type: cell-based, human; details: A673 cells, 72 hour, CyQUANT, read-out: Inhibition of Proliferation of A673 Cells (calculated IC50)
# In short: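 Proliferation read-out by CyQUANT after a 72 h exposure, compounds spanning 4 μM–[…] in half-log steps. A673 cells cultured at 37° C under 5% CO2 in DMEM supplemented with 10% FBS plus 1 mM sodium pyruvate.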
# CDK9/Cyclin T1 complex = CDK9/Cyclin T1 complex (Homo sapiens, UniProt P50750); assay: CDK9 inhibition assay (Caliper/LabChip EZ Reader kinase assay); assay type: biochemical; details: Table 1; CDK9/Cyclin T1 8 nM, ATP 2 mM, 15 min at 27° C.
# In short: (§1)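 Activity read as fluorescent peptide conversion on a LabChip EZ Reader. For CDK2/Cyclin E1 (0.5 nM), substrate was 5-FAM-CDK7tide (2 μM) with 2 mM MgCl2; for CDK9/Cyclin T1 (8 nM), 5-FAM-CDK9tide (2 μM) with 10 mM MgCl2.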
# CDK2/Cyclin E1 complex = CDK2/Cyclin E1 complex (Homo sapiens, UniProt P24941); assay: CDK2 inhibition assay (Caliper/LabChip EZ Reader kinase assay); assay type: biochemical; details: Table 1; CDK2/Cyclin E1 0.5 nM, ATP 2 mM, 35 min at 27° C.
# In short: as §1
# T1 sequence (Q9NYV4 686-1082, species assumed): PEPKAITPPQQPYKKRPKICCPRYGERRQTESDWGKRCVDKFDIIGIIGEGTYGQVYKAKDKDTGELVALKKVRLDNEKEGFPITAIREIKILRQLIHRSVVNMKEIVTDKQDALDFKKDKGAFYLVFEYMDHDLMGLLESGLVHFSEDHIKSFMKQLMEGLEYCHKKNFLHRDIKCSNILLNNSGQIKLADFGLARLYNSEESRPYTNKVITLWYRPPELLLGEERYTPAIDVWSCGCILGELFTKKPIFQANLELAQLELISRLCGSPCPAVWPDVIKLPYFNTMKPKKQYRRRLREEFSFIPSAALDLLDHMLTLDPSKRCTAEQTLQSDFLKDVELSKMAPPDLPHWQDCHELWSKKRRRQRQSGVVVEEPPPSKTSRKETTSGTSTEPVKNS
# T1 sequence (O75909 whole entry partner, species assumed, the tested form may be a part): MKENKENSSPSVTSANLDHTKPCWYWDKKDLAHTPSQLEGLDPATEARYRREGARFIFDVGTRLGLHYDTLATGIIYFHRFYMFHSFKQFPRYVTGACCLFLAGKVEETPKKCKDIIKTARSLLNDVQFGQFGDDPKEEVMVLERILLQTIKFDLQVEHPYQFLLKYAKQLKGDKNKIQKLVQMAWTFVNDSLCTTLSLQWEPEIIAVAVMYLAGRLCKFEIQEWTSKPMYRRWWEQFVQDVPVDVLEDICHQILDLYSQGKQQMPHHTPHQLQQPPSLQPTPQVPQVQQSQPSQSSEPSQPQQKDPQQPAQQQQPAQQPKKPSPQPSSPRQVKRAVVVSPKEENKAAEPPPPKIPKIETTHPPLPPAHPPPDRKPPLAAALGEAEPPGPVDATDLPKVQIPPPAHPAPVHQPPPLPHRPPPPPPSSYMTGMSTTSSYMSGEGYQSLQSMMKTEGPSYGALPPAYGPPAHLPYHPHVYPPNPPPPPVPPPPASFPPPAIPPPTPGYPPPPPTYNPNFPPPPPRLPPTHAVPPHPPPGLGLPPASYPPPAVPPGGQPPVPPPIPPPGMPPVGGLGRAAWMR
# Sequence of CDK7/Cyclin H/MAT1 complex (P50613 whole entry, species assumed): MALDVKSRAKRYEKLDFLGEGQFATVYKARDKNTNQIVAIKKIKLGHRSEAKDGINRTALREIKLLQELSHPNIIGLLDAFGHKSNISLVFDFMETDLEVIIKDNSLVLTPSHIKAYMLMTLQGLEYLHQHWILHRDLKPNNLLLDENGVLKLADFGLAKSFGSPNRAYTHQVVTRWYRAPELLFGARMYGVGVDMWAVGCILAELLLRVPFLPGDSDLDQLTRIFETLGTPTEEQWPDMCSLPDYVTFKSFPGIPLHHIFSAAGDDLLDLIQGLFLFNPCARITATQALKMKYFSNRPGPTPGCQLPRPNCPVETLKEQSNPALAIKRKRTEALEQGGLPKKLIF
# Sequence of CDK7/Cyclin H/MAT1 complex (P51946 whole entry partner, species assumed): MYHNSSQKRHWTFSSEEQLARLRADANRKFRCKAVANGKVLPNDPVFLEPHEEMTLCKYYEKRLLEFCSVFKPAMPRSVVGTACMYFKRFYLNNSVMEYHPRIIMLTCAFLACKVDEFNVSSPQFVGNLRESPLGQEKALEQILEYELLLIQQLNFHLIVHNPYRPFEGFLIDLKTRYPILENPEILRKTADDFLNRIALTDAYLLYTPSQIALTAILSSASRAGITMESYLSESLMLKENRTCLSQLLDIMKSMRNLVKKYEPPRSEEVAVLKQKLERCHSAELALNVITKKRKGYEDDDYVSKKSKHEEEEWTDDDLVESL
# Sequence of CDK7/Cyclin H/MAT1 complex (P51948 whole entry partner, species assumed): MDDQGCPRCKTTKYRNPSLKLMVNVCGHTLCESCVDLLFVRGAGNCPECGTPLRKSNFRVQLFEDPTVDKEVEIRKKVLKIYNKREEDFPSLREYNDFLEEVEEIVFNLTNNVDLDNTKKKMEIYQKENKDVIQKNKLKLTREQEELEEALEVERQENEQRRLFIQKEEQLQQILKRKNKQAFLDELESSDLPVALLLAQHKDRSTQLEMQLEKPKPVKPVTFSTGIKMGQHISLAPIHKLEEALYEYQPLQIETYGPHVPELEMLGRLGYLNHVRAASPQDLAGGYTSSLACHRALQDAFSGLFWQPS
# Sequence of CDK9/Cyclin T1 complex (P50750 whole entry, species assumed): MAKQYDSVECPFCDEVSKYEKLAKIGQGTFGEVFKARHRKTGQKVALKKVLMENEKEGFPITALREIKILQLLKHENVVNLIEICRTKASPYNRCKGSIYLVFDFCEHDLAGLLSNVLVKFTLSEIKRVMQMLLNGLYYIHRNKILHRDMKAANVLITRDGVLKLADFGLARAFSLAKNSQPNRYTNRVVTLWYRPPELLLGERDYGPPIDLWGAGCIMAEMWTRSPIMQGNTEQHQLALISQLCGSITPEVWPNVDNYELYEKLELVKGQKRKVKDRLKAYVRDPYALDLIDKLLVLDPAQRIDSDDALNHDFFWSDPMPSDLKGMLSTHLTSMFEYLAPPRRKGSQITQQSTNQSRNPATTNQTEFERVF
# Sequence of CDK9/Cyclin T1 complex (O60563 whole entry partner, species assumed): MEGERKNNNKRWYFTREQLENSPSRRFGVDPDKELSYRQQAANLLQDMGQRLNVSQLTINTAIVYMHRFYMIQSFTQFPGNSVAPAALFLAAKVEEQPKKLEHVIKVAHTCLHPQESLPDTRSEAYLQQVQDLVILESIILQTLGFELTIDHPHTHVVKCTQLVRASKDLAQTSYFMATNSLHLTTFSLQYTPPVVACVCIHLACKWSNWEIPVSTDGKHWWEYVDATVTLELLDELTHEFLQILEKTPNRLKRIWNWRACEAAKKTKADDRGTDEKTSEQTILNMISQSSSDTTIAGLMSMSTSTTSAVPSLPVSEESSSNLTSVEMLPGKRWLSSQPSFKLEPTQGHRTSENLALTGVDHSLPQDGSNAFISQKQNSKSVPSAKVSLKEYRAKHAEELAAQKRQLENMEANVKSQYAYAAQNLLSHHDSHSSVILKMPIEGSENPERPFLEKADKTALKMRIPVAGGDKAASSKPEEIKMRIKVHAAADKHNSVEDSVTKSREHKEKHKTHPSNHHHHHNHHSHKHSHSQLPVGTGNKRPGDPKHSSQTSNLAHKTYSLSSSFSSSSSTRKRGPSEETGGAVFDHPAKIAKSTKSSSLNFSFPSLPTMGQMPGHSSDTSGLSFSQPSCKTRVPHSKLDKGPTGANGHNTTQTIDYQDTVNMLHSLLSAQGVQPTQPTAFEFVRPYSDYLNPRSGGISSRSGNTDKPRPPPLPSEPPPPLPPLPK
IC50 [1],IC50 [2],IC50 (CDK9/Cyclin T1 complex),IC50 (CDK2/Cyclin E1 complex),Structure (SMILES),"IC50 (HCC70 cells; Homo sapiens, HCC70, 72 h)",IC50 (HCC70 cells),"IC50 (A673 cells; Homo sapiens, A673, 72 h)",IC50 (A673 cells)
20 to 200 nM,200 to 5000 nM,–,–,Nc1nc2c(-c3ccc4c(-c5nc(N[C@H]6CCCNC6)ncc5C(F)(F)F)c[nH]c4c3)cccc2s1 [Compound 312],100 to 1000 nM,–,–,–
20 to 200 nM,200 to 5000 nM,–,–,OCCc1cccc(-c2ccc3c(-c4nc(N[C@H]5CCCNC5)ncc4C(F)(F)F)c[nH]c3c2)c1 [Compound 324],–,100 to 1000 nM,–,–
20 to 200 nM,200 to 5000 nM,–,–,NS(=O)(=O)c1cccc(-c2ccc3c(-c4nc(N[C@H]5CCCNC5)ncc4C(F)(F)F)c[nH]c3c2)c1 [Compound 326],–,100 to 1000 nM,–,–
20 to 200 nM,200 to 5000 nM,–,–,FC(F)(F)c1cnc(NC2CCCNC2)nc1-c1c[nH]c2cc(C=Cc3ccccc3)ccc12 (centres unmarked) [Compound 317],1000 to 5000 nM,–,–,–
20 to 200 nM,200 to 5000 nM,–,–,N#Cc1cc(-c2ccc3c(-c4nc(N[C@H]5CCCNC5)ncc4C(F)(F)F)c[nH]c3c2)ccc1O [Compound 315],–,1000 to 5000 nM,–,–
20 to 200 nM,200 to 5000 nM,–,–,FC(F)(F)c1cnc(N[C@H]2CCCNC2)nc1-c1c[nH]c2cc(-c3ccc4cn[nH]c4c3)ccc12 [Compound 329],100 to 1000 nM,–,–,–
< 20 nM,200 to 5000 nM,–,–,Nc1ncc2cccc(-c3ccc4c(-c5nc(N[C@H]6CCCNC6)ncc5C(F)(F)F)c[nH]c4c3)c2n1 [Compound 322],–,100 to 1000 nM,–,–
20 to 200 nM,200 to 5000 nM,–,–,Cn1ncc2ccc(-c3ccc4c(-c5nc(N[C@H]6CCCNC6)ncc5C(F)(F)F)c[nH]c4c3)cc21 [Compound 337],–,100 to 1000 nM,–,–
20 to 200 nM,200 to 5000 nM,–,–,CCOc1ccccc1-c1ccc2c(-c3nc(NC4CCCNC4)ncc3C(F)(F)F)c[nH]c2c1 (centres unmarked) [Compound 327],100 to 1000 nM,–,–,–
20 to 200 nM,200 to 5000 nM,–,–,NS(=O)(=O)c1ccc(-c2ccc3c(-c4nc(N[C@H]5CCCNC5)ncc4C(F)(F)F)c[nH]c3c2)cc1 [Compound 331],–,100 to 1000 nM,–,–
< 20 nM,200 to 5000 nM,200 to 5000 nM,200 to 5000 nM,"FC(F)(F)c1cnc(N[C@H]2CCCNC2)nc1-c1c[nH]c2cc(-c3cccnc3)ccc12 [Compound 223, N-[(3S)-3-piperidyl]-4-[6-(3-pyridyl)-1H-indol-3-yl]-5-(trifluoromethyl) pyrimidin-2-amine]",–,–,20 to 200 nM,–
< 20 nM,200 to 5000 nM,> 5000 nM,200 to 5000 nM,"Cc1nc(-c2ccc3c(-c4nc(N[C@H]5CCCNC5)ncc4C(F)(F)F)c[nH]c3c2)nn1C [Compound 245, 4-[6-(1,5-dimethyl-1,2,4-triazol-3-yl)-1H-indol-3-yl]-N-[(3S)-3-piperidyl]-5-(trifluoromethyl) pyrimidin-2-amine]",–,–,20 to 200 nM,–
< 20 nM,> 5000 nM,200 to 5000 nM,200 to 5000 nM,"FC(F)(F)c1cnc(N[C@H]2CCCNC2)nc1-c1c[nH]c2cc(-c3ncc[nH]3)ccc12 [Compound 202, 4-[6-(1H-imidazol-2-yl)-1H-indol-3-yl]-N-[(3S)-3-piperidyl]-5-(trifluoromethyl) pyrimidin-2-amine]",–,–,20 to 200 nM,–

# Second part, the compound before the results:
Structure (SMILES),IC50 [1],IC50 [2],IC50 (CDK9/Cyclin T1 complex),IC50 (CDK2/Cyclin E1 complex),"IC50 (HCC70 cells; Homo sapiens, HCC70, 72 h)",IC50 (HCC70 cells),"IC50 (A673 cells; Homo sapiens, A673, 72 h)",IC50 (A673 cells)
FC(F)(F)c1cc2[nH]cc(-c3ccc4c(-c5nc(N[C@H]6CCCNC6)ncc5C(F)(F)F)c[nH]c4c3)c2cn1 [Compound 319],20 to 200 nM,200 to 5000 nM,–,–,–,1000 to 5000 nM,–,–
Cn1cc(-c2ccc3c(-c4nc(N[C@H]5CCCNC5)ncc4C(F)(F)F)c[nH]c3c2)c2cnc(C(F)(F)F)cc21 [Compound 320],20 to 200 nM,200 to 5000 nM,–,–,1000 to 5000 nM,–,–,–
"CC(C)(O)CCc1ccc2c(-c3nc(N[C@H]4CCCNC4)ncc3C(F)(F)F)c[nH]c2c1 [Compound 242, 2-methyl-4-[3-[2-[[(3S)-3-piperidyl]amino]-5-(trifluoromethyl)pyrimidin-4-yl]-1H-indol-6-yl] butan-2-ol]",20 to 200 nM,200 to 5000 nM,200 to 5000 nM,> 5000 nM,–,–,20 to 200 nM,–
"O=C(c1ccc2c(-c3nc(N[C@H]4CCCNC4)ncc3C(F)(F)F)c[nH]c2c1)N1CC[C@@H](O)C1 [Compound 205, [(3R)-3-hydroxypyrrolidin-1-yl]-[3-[2-[[(3S)-3-piperidyl]amino]-5-(trifluoromethyl)pyrimidin-4-yl]-1H-indol-6-yl]methanone]",< 20 nM,200 to 5000 nM,> 5000 nM,> 5000 nM,–,–,200 to 5000 nM,–
"CNC(=O)C1CNCC(Nc2ncc(C(F)(F)F)c(-c3c[nH]c4ccccc34)n2)C1 (single isomer, unassigned) [Compound 253]",< 20 nM,20 to 200 nM,200 to 5000 nM,20 to 200 nM,–,–,–,20 to 200 nM
"CNS(=O)(=O)c1ccc2c(-c3nc(N[C@H]4CCCNC4)ncc3C(F)(F)F)c[nH]c2c1 [Compound 200, N-methyl-3-[2-[[(3S)-3-piperidyl]amino]-5-(trifluoromethyl)pyrimidin-4-yl]-1H-indole-6-sulfonamide]",< 20 nM,200 to 5000 nM,200 to 5000 nM,200 to 5000 nM,–,–,20 to 200 nM,–
C=Cc1cnc(N[C@H]2CCCNC2)nc1-c1c[nH]c2ccccc12 [Compound 218],< 20 nM,200 to 5000 nM,200 to 5000 nM,200 to 5000 nM,–,–,20 to 200 nM,–
CCc1cnc(N[C@H]2CCCNC2)nc1-c1c[nH]c2cc(S(C)(=O)=O)ccc12 [Compound 271],20 to 200 nM,> 5000 nM,> 5000 nM,> 5000 nM,–,–,200 to 5000 nM,–
CC(O)c1cnc(N[C@H]2CCCNC2)nc1-c1c[nH]c2ccccc12 (mixture of isomers) [Compound 234],200 to 5000 nM,> 5000 nM,> 5000 nM,> 5000 nM,–,–,< 20 nM,–
CCCCCC1CC[C@H](Nc2ncc(C(F)(F)F)c(-c3c[nH]c4ccccc34)n2)CN1 (mixture of isomers) [Compound 241],20 to 200 nM,200 to 5000 nM,200 to 5000 nM,200 to 5000 nM,–,–,20 to 200 nM,–
Fc1cc2[nH]cc(-c3nc(N[C@H]4CCCNC4)ncc3C(F)(F)F)c2cc1F [Compound 184],< 20 nM,20 to 200 nM,20 to 200 nM,20 to 200 nM,–,–,–,< 20 nM
"FC1(F)CNC[C@@H](Nc2ncc(C(F)(F)F)c(-c3c[nH]c4ccccc34)n2)C1 [Compound 236, N-[(3S)-5,5-difluoro-3-piperidyl]-4-(1H-indol-3-yl)-5-(trifluoromethyl) pyrimidin-2-amine]",< 20 nM,200 to 5000 nM,200 to 5000 nM,200 to 5000 nM,–,–,20 to 200 nM,–
Brc1cnc(NC2CCCNC2)nc1-c1c[nH]c2ccccc12 (stereo in doubt) [Compound 133],< 20 nM,20 to 200 nM,200 to 5000 nM,20 to 200 nM,–,–,< 20 nM,–
CC(C)CN1CCC[C@H](Nc2ncc(Cl)c(-c3c[nH]c4ccccc34)n2)C1 [Compound 145],20 to 200 nM,200 to 5000 nM,> 5000 nM,> 5000 nM,–,–,200 to 5000 nM,–
CC(C)N1CCC[C@H](Nc2ncc(Cl)c(-c3c[nH]c4ccccc34)n2)C1 [Compound 148],20 to 200 nM,200 to 5000 nM,200 to 5000 nM,> 5000 nM,–,–,20 to 200 nM,–
